From patent US11230540B2, “Substituted triazole derivatives and uses thereof” (Bayer Pharma Aktiengesellschaft, priority 2017, dated 2022)

Tests used:
human V2 receptor = biological target: T1, human V2 receptor (Homo sapiens, UniProt P30518); experiment: Cellular in vitro assay for vasopressin receptor activity, V2 receptor cell line (CRE-luciferase); type: cell-based; settings: CHO cell line transfected with human V2 receptor; [Arg8]-vasopressin at EC50 concentration; read-out: IC50 hV2
T1 construct: expressed in transfected cells; host or cells: CHO K1 (Chinese hamster ovary) expressing firefly luciferase under a CRE-responsive promoter
Procedure: (§1) B-1. Cellular In Vitro Assay for Determining Vasopressin Receptor Activity
(§2) The identification of agonists and antagonists of the V1a and V2 vasopressin receptors from humans, rats and dogs as well as the quantification of the activity of the compounds of the invention is carried out using recombinant cell lines. These cell lines originally derive from a hamster's ovary epithelial cell (Chinese Hamster Ovary, CHO K1, ATCC: American Type Culture Collection, Manassas, Va. 20108, USA). The test cell lines constitutively express the human, rat or dog V1a or V2 receptors. In case of the […] V1a receptors, cells are also stably transfected with a modified form of the calcium-sensitive photoproteins aequorin (human and rat V1a) or obelin (dog V1a), which, after reconstitution with the cofactor coelenterazine, emit light when there are increases in free calcium concentrations [Rizzuto R, Simpson A W, Brini M, Pozzan T, Nature 358, 325-327 (1992); Illarionov B A, Bondar V S, Illarionova V A, Vysotski E S, Gene 153 (2), 273-274 (1995)]. The resulting vasopressin receptor cells react to stimulation of the recombinantly expressed V1a receptors by intracellular release of calcium ions, which can be quantified by the resulting photoprotein luminescence. The Gs-coupled V2 receptors are stably transfected into cell lines expressing the gene for firefly luciferase under control of a CRE-responsible promoter. Activation of V2 receptors induces the activation of the CRE-responsive promoter via cAMP increase, thereby inducing the expression of firefly luciferase. The light emitted by photoproteins of V1a cell lines as well as the light emitted by firefly luciferase of V2 cell lines corresponds to the activation or inhibition of the respective vasopressin receptor. The bioluminescence of the cell lines is detected using a suitable luminometer [Milligan G, Marshall F, Rees S, Trends in Pharmacological Sciences 17, 235-237 (1996)].
Vasopressin V2 Receptor Cell Lines:
On the day before the assay, the cells are plated out in culture medium (DMEM/F12, 2% FCS, 2 mM glutamine, 10 mM HEPES) in 384-well microtiter plates and kept in a cell incubator (96% humidity, 5% v/v CO2, 37° C.). On the day of the assay, test compounds in various concentrations and the agonist [Arg^8]-vasopressin at EC50 concentration are added together to the wells, and plates are incubated for 3 hours in a cell incubator. Upon addition of the cell lysis reagent Triton™ and the substrate luciferin, luminescence of firefly luciferase is measured in a luminometer.
(§3) Table 1A below lists individual IC50 values for the compounds of the invention (including racemic mixtures as well as separated enantiomers) that were obtained from cell lines transfected with the human V1a or V2 receptor: […]

human V1a receptor = biological target: T2, human V1a receptor (Homo sapiens, UniProt P37288); experiment: Cellular in vitro assay for vasopressin receptor activity, V1a receptor cell line (aequorin luminescence); type: cell-based; settings: for IC50: CHO cell line transfected with human V1a receptor, [Arg8]-vasopressin at EC50 concentration, read-out: IC50 hV1a; for ratio IC50 hV2/hV1a: selectivity ratio of the IC50 values hV2/hV1a
T2 construct: expressed in transfected cells; host or cells: CHO K1 (Chinese hamster ovary), also stably transfected with a modified aequorin
Procedure: as §1, §2
Vasopressin V1a Receptor Cell Lines:
On the day before the assay, the cells are plated out in culture medium (DMEM/F12, 2% FCS, 2 mM glutamine, 10 mM HEPES, 5 μg/ml coelenterazine) in 384-well microtiter plates and kept in a cell incubator (96% humidity, 5% v/v CO2, 37° C.). On the day of the assay, test compounds in various concentrations are placed for 10 minutes in the wells of the microtiter plate before the agonist [Arg^8]-vasopressin at EC50 concentration is added. The resulting light signal is measured immediately in a luminometer.
as §3

T2 sequence (P37288 whole entry): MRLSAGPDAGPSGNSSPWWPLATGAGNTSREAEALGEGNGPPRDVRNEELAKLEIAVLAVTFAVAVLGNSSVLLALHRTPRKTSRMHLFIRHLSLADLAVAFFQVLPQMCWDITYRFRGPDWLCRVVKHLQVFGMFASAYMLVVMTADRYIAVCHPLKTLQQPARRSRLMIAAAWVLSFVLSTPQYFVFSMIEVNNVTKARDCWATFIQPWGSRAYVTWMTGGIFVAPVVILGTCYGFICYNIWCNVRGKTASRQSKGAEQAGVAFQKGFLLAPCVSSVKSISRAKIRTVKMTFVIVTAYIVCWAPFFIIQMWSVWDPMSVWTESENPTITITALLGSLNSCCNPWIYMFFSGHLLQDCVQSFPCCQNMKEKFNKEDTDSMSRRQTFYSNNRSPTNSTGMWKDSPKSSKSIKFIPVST
T1 sequence (P30518 whole entry): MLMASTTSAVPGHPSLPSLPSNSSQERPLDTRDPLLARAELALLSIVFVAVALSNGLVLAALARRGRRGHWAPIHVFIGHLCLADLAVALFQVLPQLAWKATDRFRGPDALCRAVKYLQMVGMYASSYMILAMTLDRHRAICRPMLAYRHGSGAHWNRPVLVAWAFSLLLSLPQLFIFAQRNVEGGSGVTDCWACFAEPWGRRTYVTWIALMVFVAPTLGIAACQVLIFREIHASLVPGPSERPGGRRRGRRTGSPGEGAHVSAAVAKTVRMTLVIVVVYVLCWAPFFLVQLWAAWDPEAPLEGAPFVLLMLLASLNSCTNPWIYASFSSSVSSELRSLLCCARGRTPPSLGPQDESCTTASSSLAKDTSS

Row | Compound | IC50 (human V2 receptor) [nM] | IC50 (human V1a receptor) [nM] | ratio IC50 hV2/hV1a (human V1a receptor)
1 | NNC(=O)c1nc(Cn2nc(-c3ccc(Cl)cc3)n(C[C@H](O)C(F)(F)F)c2=O)nn1-c1cnccc1Cl [Example 9, 3-({3-(4-Chlorophenyl)-5-oxo-4-[(2S)-3,3,3-trifluoro-2-hydroxypropyl]-4,5-dihydro-1H-1,2,4-triazol-1-yl}methyl)-1-(4-chloropyridin-3-yl)-1H-1,2,4-triazole-5-carbohydrazide] | 148 | 2.9 | 51.1
2 | NNC(=O)c1nc(Cn2nc(-c3ccc(Cl)cc3)n(C[C@H](O)C(F)(F)F)c2=O)nn1-c1ncccc1Cl [Example 10, 3-({3-(4-Chlorophenyl)-5-oxo-4-[(2S)-3,3,3-trifluoro-2-hydroxypropyl]-4,5-dihydro-1H-1,2,4-triazol-1-yl}methyl)-1-(3-chloropyridin-2-yl)-1H-1,2,4-triazole-5-carbohydrazide] | 94.5 | 2.15 | 44.0
3 | NNC(=O)c1nc(Cn2nc(-c3ccc(Cl)cc3)n(C[C@H](O)C(F)(F)F)c2=O)nn1-c1ncccc1OC(F)(F)F [Example 11, 3-({3-(4-Chlorophenyl)-5-oxo-4-[(2S)-3,3,3-trifluoro-2-hydroxypropyl]-4,5-dihydro-1H-1,2,4-triazol-1-yl}methyl)-1-[3-(trifluoromethoxy)pyridin-2-yl]-1H-1,2,4-triazole-5-carbohydrazide] | 1640 | 9.1 | 180.2
4 | O=C(c1nc(Cn2nc(-c3ccc(Cl)cc3)n(C[C@H](O)C(F)(F)F)c2=O)nn1-c1ccccc1Cl)N1CC(O)(C(F)(F)F)C1 [Example 12, 5-(4-Chlorophenyl)-2-{[1-(2-chlorophenyl)-5-{[3-hydroxy-3-(trifluoromethyl)azetidin-1-yl]carbonyl}-1H-1,2,4-triazol-3-yl]methyl}-4-[(2S)-3,3,3-trifluoro-2-hydroxypropyl]-2,4-dihydro-3H-1,2,4-triazol-3-one] | 22.2 | 1.19 | 18.7
5 | CC(C)(O)CNC(=O)c1nc(Cn2nc(-c3ccc(Cl)cc3)n(C[C@H](O)C(F)(F)F)c2=O)nn1-c1cccnc1Cl [Example 15, 3-({3-(4-Chlorophenyl)-5-oxo-4-[(2S)-3,3,3-trifluoro-2-hydroxypropyl]-4,5-dihydro-1H-1,2,4-triazol-1-yl}methyl)-1-(2-chloropyridin-3-yl)-N-(2-hydroxy-2-methylpropyl)-1H-1,2,4-triazole-5-carboxamide] | 183 | 13 | –
6 | O=C(NCC(F)(F)F)c1nc(Cn2nc(-c3ccc(Cl)cc3)n(C[C@H](O)C(F)(F)F)c2=O)nn1-c1ncccc1Br [Example 16, 1-(3-Bromopyridin-2-yl)-3-({3-(4-chlorophenyl)-5-oxo-4-[(2S)-3,3,3-trifluoro-2-hydroxypropyl]-4,5-dihydro-1H-1,2,4-triazol-1-yl}methyl)-N-(2,2,2-trifluoroethyl)-1H-1,2,4-triazole-5-carboxamide] | 40.7 | 1.23 | 33.1
7 | O=C(NCC(F)(F)F)c1nc(Cn2nc(-c3ccc(Cl)cc3)n(C[C@H](O)C(F)(F)F)c2=O)nn1-c1ncccc1Cl [Example 17, 3-({3-(4-Chlorophenyl)-5-oxo-4-[(2S)-3,3,3-trifluoro-2-hydroxypropyl]-4,5-dihydro-1H-1,2,4-triazol-1-yl}methyl)-1-(3-chloropyridin-2-yl)-N-(2,2,2-trifluoroethyl)-1H-1,2,4-triazole-5-carboxamide] | 28.3 | 0.71 | 40.2
8 | O=C(NCC(F)(F)F)c1nc(Cn2nc(-c3ccc(Cl)cc3)n(C[C@H](O)C(F)(F)F)c2=O)nn1-c1cccnc1Cl [Example 18, 3-({3-(4-Chlorophenyl)-5-oxo-4-[(2S)-3,3,3-trifluoro-2-hydroxypropyl]-4,5-dihydro-1H-1,2,4-triazol-1-yl}methyl)-1-(2-chloropyridin-3-yl)-N-(2,2,2-trifluoroethyl)-1H-1,2,4-triazole-5-carboxamide] | 64 | 13.5 | 4.7
9 | O=C(NCC(F)(F)F)c1nc(Cn2nc(-c3ccc(Cl)cc3)n(C[C@H](O)C(F)(F)F)c2=O)nn1-c1cnccc1Cl [Example 19, 3-({3-(4-Chlorophenyl)-5-oxo-4-[(2S)-3,3,3-trifluoro-2-hydroxypropyl]-4,5-dihydro-1H-1,2,4-triazol-1-yl}methyl)-1-(4-chloropyridin-3-yl)-N-(2,2,2-trifluoroethyl)-1H-1,2,4-triazole-5-carboxamide] | 21.5 | 0.47 | 45.7
10 | COc1cccnc1-n1nc(Cn2nc(-c3ccc(Cl)cc3)n(C[C@H](O)C(F)(F)F)c2=O)nc1C(=O)NCC(C)(C)N [Example 20, N-(2-Amino-2-methylpropyl)-3-({3-(4-chlorophenyl)-5-oxo-4-[(2S)-3,3,3-trifluoro-2-hydroxypropyl]-4,5-dihydro-1H-1,2,4-triazol-1-yl}methyl)-1-(3-methoxypyridin-2-yl)-1H-1,2,4-triazole-5-carboxamide] | 104 | 6.95 | 14.9
11 | CNC(=O)c1nc(Cn2nc(-c3ccc(Cl)cc3)n(C[C@H](O)C(F)(F)F)c2=O)nn1-c1ncccc1OC [Example 21, 3-({3-(4-Chlorophenyl)-5-oxo-4-[(2S)-3,3,3-trifluoro-2-hydroxypropyl]-4,5-dihydro-1H-1,2,4-triazol-1-yl}methyl)-1-(3-methoxypyridin-2-yl)-N-methyl-1H-1,2,4-triazole-5-carboxamide] | 22.5 | 6.05 | 3.7
12 | O=C(c1nc(Cn2nc(-c3ccc(Cl)cc3)n(C[C@H](O)C(F)(F)F)c2=O)nn1CCC(F)(F)F)N1CCOCC1 [Example 26, 5-(4-Chlorophenyl)-2-{[5-(morpholin-4-ylcarbonyl)-1-(3,3,3-trifluoropropyl)-1H-1,2,4-triazol-3-yl]methyl}-4-[(2S)-3,3,3-trifluoro-2-hydroxypropyl]-2,4-dihydro-3H-1,2,4-triazol-3-one] | 730 | 75 | –
13 | CC(C)(C)NC(=O)c1nc(Cn2nc(-c3ccc(Cl)cc3)n(C[C@H](O)C(F)(F)F)c2=O)nn1-c1ncccc1Cl [Example 27, N-tert-Butyl-3-({3-(4-chlorophenyl)-5-oxo-4-[(2S)-3,3,3-trifluoro-2-hydroxypropyl]-4,5-dihydro-1H-1,2,4-triazol-1-yl}methyl)-1-(3-chloropyridin-2-yl)-1H-1,2,4-triazole-5-carboxamide] | 106 | 4.15 | 25.5
14 | CC(C)(C)NC(=O)c1nc(Cn2nc(-c3ccc(Cl)cc3)n(C[C@H](O)C(F)(F)F)c2=O)nn1-c1ccccc1Cl [Example 28, N-tert-Butyl-1-(2-chlorophenyl)-3-({3-(4-chlorophenyl)-5-oxo-4-[(2S)-3,3,3-trifluoro-2-hydroxypropyl]-4,5-dihydro-1H-1,2,4-triazol-1-yl}methyl)-1H-1,2,4-triazole-5-carboxamide] | 26 | 2.95 | 8.8
